Active and inactive are the calls of the source.
What was measured:
[1] = molecular target: T1, 3-oxoacyl-[acyl-carrier-protein] synthase 2 (Staphylococcus aureus) (UniProt Q5TKS0); test: Inhibition of Staphylococcus aureus […] assessed as [2-14C]-malonyl CoA incorporation after 90 mins by cell free-based scintillation counting
T1 sequence (whole entry): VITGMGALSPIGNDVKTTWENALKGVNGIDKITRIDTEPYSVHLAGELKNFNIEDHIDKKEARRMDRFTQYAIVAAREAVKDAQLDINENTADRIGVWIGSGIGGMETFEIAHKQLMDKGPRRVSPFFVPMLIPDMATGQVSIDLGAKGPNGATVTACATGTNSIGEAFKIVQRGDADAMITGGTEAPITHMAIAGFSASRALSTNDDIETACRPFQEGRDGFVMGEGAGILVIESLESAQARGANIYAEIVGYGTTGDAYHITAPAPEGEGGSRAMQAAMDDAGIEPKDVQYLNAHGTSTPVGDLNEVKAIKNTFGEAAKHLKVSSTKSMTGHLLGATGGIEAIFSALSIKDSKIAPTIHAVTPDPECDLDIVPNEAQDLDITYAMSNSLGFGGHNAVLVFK

Haemophilus influenzae = test: Antibacterial activity against Haemophilus influenzae at 64 ug/ml after 20 hrs; assay type: functional, organism-based
Escherichia coli = test: Antibacterial activity against Escherichia coli at 64 ug/ml after 20 hrs; assay type: functional, organism-based
Enterococcus faecalis = test: Antibacterial activity against Enterococcus faecalis at 64 ug/ml after 20 hrs; assay type: functional, organism-based
Enterococcus faecium = test: Antibacterial activity against Enterococcus faecium at 64 ug/ml after 20 hrs; assay type: functional, organism-based
Streptococcus pneumoniae = test: Antibacterial activity against Streptococcus pneumoniae at 64 ug/ml after 20 hrs; assay type: functional, organism-based
Staphylococcus aureus = test: Antibacterial activity against Staphylococcus aureus at 64 ug/ml after 20 hrs; assay type: functional, organism-based

C[C@@]12C[C@@]34C=CC(=O)[C@@](C)(CCC(=O)O)C3[C@H](CC1C4)O2 (some centres not stated)
inactive: inhibition [1] | Activity (Haemophilus influenzae) | Activity (Escherichia coli) | Activity (Enterococcus faecalis) | Activity (Enterococcus faecium) | Activity (Streptococcus pneumoniae) | Activity (Staphylococcus aureus)

COC(=O)[C@H](CCC(N)=O)NC(=O)/C(C)=C/CC[C@]1(C)C(=O)C=C[C@]23CC4C[C@H](O[C@]4(C)C2)C31 (some centres not stated)
inactive: inhibition [1] | Activity (Haemophilus influenzae) | Activity (Escherichia coli) | Activity (Enterococcus faecalis) | Activity (Enterococcus faecium) | Activity (Streptococcus pneumoniae) | Activity (Staphylococcus aureus)

C[C@]12O[C@H]3CC1C[C@@]1(C=CC(=O)[C@@](C)(CCC(=O)O)C31)[C@H]2O (some centres not stated)
inactive: inhibition [1] | Activity (Haemophilus influenzae) | Activity (Escherichia coli) | Activity (Enterococcus faecalis) | Activity (Enterococcus faecium) | Activity (Streptococcus pneumoniae) | Activity (Staphylococcus aureus)

C=C1CC23C=CC(=O)[C@@](C)(CCC(=O)OCC(O)CO)C2CC1CC3 (some centres not stated)
inactive: inhibition [1] | Activity (Haemophilus influenzae) | Activity (Escherichia coli) | Activity (Enterococcus faecalis) | Activity (Enterococcus faecium) | Activity (Streptococcus pneumoniae) | Activity (Staphylococcus aureus)

C[C@@]12C[C@@]34C=CC(=O)[C@@](C)(CCC(=O)Nc5c(O)ccc(C(N)=O)c5O)C3[C@H](CC1C4)O2 (some centres not stated)
inactive: inhibition [1] | Activity (Haemophilus influenzae) | Activity (Escherichia coli) | Activity (Enterococcus faecalis) | Activity (Enterococcus faecium) | Activity (Streptococcus pneumoniae) | Activity (Staphylococcus aureus)

COC(=O)c1ccc(O)c(NC(=O)CC[C@]2(C)C(=O)C[C@@H](O)[C@]34CC5C[C@H](O[C@]5(C)C3)C42)c1O (some centres not stated)
inactive: inhibition [1] | Activity (Haemophilus influenzae) | Activity (Escherichia coli) | Activity (Enterococcus faecalis) | Activity (Enterococcus faecium) | Activity (Streptococcus pneumoniae) | Activity (Staphylococcus aureus)

C[C@@]1(CCC(=O)Nc2c(O)ccc(C(=O)O)c2O)C(=O)C=CC23CCC(CC21)[C@@](O)(CO)C3 (some centres not stated)
inactive: inhibition [1] | Activity (Haemophilus influenzae) | Activity (Escherichia coli) | Activity (Enterococcus faecalis) | Activity (Enterococcus faecium) | Activity (Streptococcus pneumoniae) | Activity (Staphylococcus aureus)

C=C1CC23C=CC(=O)[C@@](C)(CCC(=O)Nc4c(O)ccc(C(=O)O)c4O)C2CC1C[C@H]3O (some centres not stated)
inactive: inhibition [1] | Activity (Haemophilus influenzae) | Activity (Escherichia coli) | Activity (Enterococcus faecalis) | Activity (Enterococcus faecium) | Activity (Streptococcus pneumoniae) | Activity (Staphylococcus aureus)

COC(=O)c1ccc(O)c(NC(=O)CC[C@]2(C)C(=O)C=CC34CCC(CC32)[C@@](O)(CO)C4)c1O (some centres not stated)
inactive: inhibition [1] | Activity (Haemophilus influenzae) | Activity (Escherichia coli) | Activity (Enterococcus faecalis) | Activity (Enterococcus faecium) | Activity (Streptococcus pneumoniae) | Activity (Staphylococcus aureus)

C[C@@]12CC34C=CC(=O)[C@@](C)(CCC(=O)Nc5c(O)ccc(C(=O)O)c5O)C3[C@H](CC1[C@H]4O)O2 (some centres not stated)
inactive: inhibition [1] | Activity (Haemophilus influenzae) | Activity (Escherichia coli) | Activity (Enterococcus faecalis) | Activity (Enterococcus faecium) | Activity (Streptococcus pneumoniae) | Activity (Staphylococcus aureus)

C[C@@]12C[C@@]34C=CC(=O)[C@@](C)(CCC(=O)Nc5c(O)cccc5O)C3[C@H](CC1C4)O2 (some centres not stated)
inactive: inhibition [1] | Activity (Haemophilus influenzae) | Activity (Escherichia coli) | Activity (Enterococcus faecalis) | Activity (Enterococcus faecium) | Activity (Streptococcus pneumoniae) | Activity (Staphylococcus aureus)

COC(=O)c1ccc(O)c(NC(=O)CC[C@]2(C)C(=O)C=C[C@]34CC5C[C@H](O[C@]5(C)C3)C42)c1O (some centres not stated)
inactive: inhibition [1] | Activity (Haemophilus influenzae) | Activity (Escherichia coli) | Activity (Enterococcus faecalis) | Activity (Enterococcus faecium) | Activity (Streptococcus pneumoniae) | Activity (Staphylococcus aureus)

COC(=O)c1ccc(O)c(NC(=O)CC[C@]2(C)C(=O)C=CC34CC(CCC32)C(O)(CO)C4)c1O (some centres not stated)
inactive: inhibition [1] | Activity (Haemophilus influenzae) | Activity (Escherichia coli) | Activity (Enterococcus faecalis) | Activity (Enterococcus faecium) | Activity (Streptococcus pneumoniae) | Activity (Staphylococcus aureus)

CC(=O)NCC[C@H](NC(=O)CC[C@]1(C)C(=O)C=C[C@]23CC4C[C@H](O[C@]4(C)C2)C31)C(=O)O (some centres not stated)
inactive: inhibition [1] | Activity (Haemophilus influenzae) | Activity (Escherichia coli) | Activity (Enterococcus faecalis) | Activity (Enterococcus faecium) | Activity (Streptococcus pneumoniae) | Activity (Staphylococcus aureus)

C=C1C[C@@]23C=CC(=O)[C@@](C)(CCC(=O)Nc4c(O)ccc(C(=O)O)c4O)[C@@H]2C[C@@H]1CC3
inactive: Activity (Haemophilus influenzae) | Activity (Escherichia coli) | Activity (Enterococcus faecalis) | Activity (Enterococcus faecium) | Activity (Streptococcus pneumoniae) | Activity (Staphylococcus aureus)

CC12CC34C=CC(=O)[C@@](C)(CCC(=O)Nc5c(O)ccc(C(=O)O)c5O)C3C(C[C@]1(O)C4)O2 (some centres not stated)
inactive: inhibition [1] | Activity (Haemophilus influenzae) | Activity (Escherichia coli) | Activity (Enterococcus faecalis) | Activity (Enterococcus faecium) | Activity (Streptococcus pneumoniae) | Activity (Staphylococcus aureus)

C=C1C[C@@]23C=CC(=O)[C@@](C)(CCC(=O)OC)C2C[C@@H]1C[C@H]3O (some centres not stated)
inactive: inhibition [1] | Activity (Haemophilus influenzae) | Activity (Escherichia coli) | Activity (Enterococcus faecalis) | Activity (Enterococcus faecium) | Activity (Streptococcus pneumoniae) | Activity (Staphylococcus aureus)

C[C@@]12C[C@@]34C=CC(=O)[C@@](C)(CCC(=O)Nc5c(O)ccc6c(=O)[nH]c(=O)oc56)C3[C@H](CC1C4)O2 (some centres not stated)
inactive: inhibition [1] | Activity (Haemophilus influenzae) | Activity (Escherichia coli) | Activity (Enterococcus faecalis) | Activity (Enterococcus faecium) | Activity (Streptococcus pneumoniae) | Activity (Staphylococcus aureus)

C=C1CC23C=CC(=O)[C@@](C)(CCC(=O)Nc4c(O)ccc(C(=O)O)c4O)C2CC1[C@@H](O)C3 (some centres not stated)
inactive: inhibition [1] | Activity (Haemophilus influenzae) | Activity (Escherichia coli) | Activity (Enterococcus faecalis) | Activity (Enterococcus faecium) | Activity (Streptococcus pneumoniae) | Activity (Staphylococcus aureus)

COC(=O)c1ccc(O)c(NC(=O)CC[C@]2(C)C(=O)C=CC34CC5(C)OC(C[C@]5(O)C3)C42)c1O (some centres not stated)
inactive: inhibition [1] | Activity (Haemophilus influenzae) | Activity (Escherichia coli) | Activity (Enterococcus faecalis) | Activity (Enterococcus faecium) | Activity (Streptococcus pneumoniae) | Activity (Staphylococcus aureus)

CC12C[C@@]34C=CC(=O)[C@@](C)(CCC(=O)Nc5c(O)ccc(C(=O)O)c5O)C3[C@H](CC1C4)O2 (some centres not stated)
inactive: Activity (Haemophilus influenzae) | Activity (Escherichia coli) | Activity (Enterococcus faecalis) | Activity (Enterococcus faecium) | Activity (Streptococcus pneumoniae) | Activity (Staphylococcus aureus)

C[C@@]12C[C@]34CC1C[C@H](O2)C3[C@](C)(CCC(=O)Nc1c(O)ccc(C(=O)O)c1O)C(=O)C[C@H]4O (some centres not stated)
inactive: inhibition [1] | Activity (Haemophilus influenzae) | Activity (Escherichia coli) | Activity (Enterococcus faecalis) | Activity (Enterococcus faecium) | Activity (Streptococcus pneumoniae) | Activity (Staphylococcus aureus)

— ChEMBL document CHEMBL1773043, “Platensimycin and platencin congeners from Streptomyces platensis” (J Nat Prod, 2011)
